Laboratory results taken from PubChem BioAssay (NCI).
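GI50 = concentration required for 50% inhibition of growth. TGI: total growth inhibition.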

Legend:
Test in all cases: inhibition of tumour cell growth, NCI panel, 384-well format
786-0 renal = tested on: 786-0 renal
A498 renal = tested on: A498 renal
A549 NSCLC = tested on: A549 NSCLC
ACHN renal = tested on: ACHN renal
BT-549 breast = tested on: BT-549 breast
CAKI-1 renal = tested on: CAKI-1 renal
CCRF-CEM leukemia = tested on: CCRF-CEM leukemia
COLO 205 colon = tested on: COLO 205 colon
DU-145 prostate = tested on: DU-145 prostate
EKVX NSCLC = tested on: EKVX NSCLC
HCC-2998 colon = tested on: HCC-2998 colon
HCT-15 colon = tested on: HCT-15 colon
HL-60(TB) leukemia = tested on: HL-60(TB) leukemia
HS 578T breast = tested on: HS 578T breast
HT29 colon = tested on: HT29 colon
K-562 leukemia = tested on: K-562 leukemia
KM12 colon = tested on: KM12 colon
LOX IMVI melanoma = tested on: LOX IMVI melanoma
M14 melanoma = tested on: M14 melanoma
MALME-3M melanoma = tested on: MALME-3M melanoma
MCF7 breast = tested on: MCF7 breast
MDA-MB-231 breast = tested on: MDA-MB-231 breast
MDA-MB-435 melanoma = tested on: MDA-MB-435 melanoma
MDA-MB-468 breast = tested on: MDA-MB-468 breast
MOLT-4 leukemia = tested on: MOLT-4 leukemia
NCI-H226 lung = tested on: NCI-H226 lung
NCI-H23 lung = tested on: NCI-H23 lung
NCI-H322M lung = tested on: NCI-H322M lung
NCI-H522 lung = tested on: NCI-H522 lung
OVCAR-3 ovarian = tested on: OVCAR-3 ovarian
OVCAR-4 ovarian = tested on: OVCAR-4 ovarian
OVCAR-5 ovarian = tested on: OVCAR-5 ovarian
OVCAR-8 ovarian = tested on: OVCAR-8 ovarian
PC-3 prostate = tested on: PC-3 prostate
RXF 393 renal = tested on: RXF 393 renal
SF-268 CNS = tested on: SF-268 CNS
SF-539 CNS = tested on: SF-539 CNS
SK-MEL-2 melanoma = tested on: SK-MEL-2 melanoma
SK-MEL-28 melanoma = tested on: SK-MEL-28 melanoma
SK-MEL-5 melanoma = tested on: SK-MEL-5 melanoma
SN12C renal = tested on: SN12C renal
SNB-19 CNS = tested on: SNB-19 CNS
SR leukemia = tested on: SR leukemia
SW-620 colon = tested on: SW-620 colon
T-47D breast = tested on: T-47D breast
TK-10 renal = tested on: TK-10 renal
U251 glioblastoma = tested on: U251 glioblastoma

SMILES: CC(C)(O)c1cc(Nc2cc(Oc3cn(C4CC4)nc3C3CCOCC3)ccn2)ccn1
- GI50 ([…]-0 renal): > 72.6 µM
- TGI (786-0 renal): > 100 µM
- GI50 (A498 renal): 66.8 µM
- TGI (A498 renal): > 100 µM
- GI50 (A549 NSCLC): 89.6 µM
- TGI (A549 NSCLC): > 100 µM
- GI50 (ACHN renal): > 100 µM
- TGI (ACHN renal): > 100 µM
- GI50 (BT-549 breast): 38.7 µM
- TGI (BT-549 breast): > 100 µM
- GI50 (CAKI-1 renal): 68.1 µM
- TGI (CAKI-1 renal): > 100 µM
- GI50 (CCRF-CEM leukemia): 46.7 µM
- TGI (CCRF-CEM leukemia): > 100 µM
- GI50 (COLO 205 colon): 63.2 µM
- TGI (COLO 205 colon): > 100 µM
- GI50 (DU-145 prostate): > 100 µM
- TGI (DU-145 prostate): > 100 µM
- GI50 (EKVX NSCLC): 51.6 µM
- TGI (EKVX NSCLC): > 100 µM
- GI50 (HCC-2998 colon): > 100 µM
- TGI (HCC-2998 colon): > 100 µM
- GI50 (HCT-15 colon): > 100 µM
- TGI (HCT-15 colon): > 100 µM
- GI50 (HL-60(TB) leukemia): 15.5 µM
- TGI (HL-60(TB) leukemia): 29.1 µM
- GI50 (HS 578T breast): 37.7 µM
- TGI (HS 578T breast): > 100 µM
- GI50 (HT29 colon): 54.1 µM
- TGI (HT29 colon): > 100 µM
- GI50 (K-562 leukemia): 26.3 µM
- TGI (K-562 leukemia): > 100 µM
- GI50 (KM12 colon): 97.1 µM
- TGI (KM12 colon): > 100 µM
- GI50 (LOX IMVI melanoma): 24.9 µM
- TGI (LOX IMVI melanoma): 84.9 µM
- GI50 (M14 melanoma): > 100 µM
- TGI (M14 melanoma): > 100 µM
- GI50 (MALME-3M melanoma): > 77.1 µM
- TGI (MALME-3M melanoma): > 100 µM
- GI50 (MCF7 breast): 29.9 µM
- TGI (MCF7 breast): > 100 µM
- GI50 (MDA-MB-231 breast): > 89 µM
- TGI (MDA-MB-231 breast): > 100 µM
- GI50 (MDA-MB-435 melanoma): > 100 µM
- TGI (MDA-MB-435 melanoma): > 100 µM
- GI50 (MDA-MB-468 breast): 33.8 µM
- TGI (MDA-MB-468 breast): > 83.5 µM
- GI50 (MOLT-4 leukemia): 42.7 µM
- TGI (MOLT-4 leukemia): > 100 µM
- GI50 (NCI-H226 lung): > 93.3 µM
- TGI (NCI-H226 lung): > 100 µM
- GI50 (NCI-H23 lung): 23.1 µM
- TGI (NCI-H23 lung): > 100 µM
- GI50 (NCI-H322M lung): > 100 µM
- TGI (NCI-H322M lung): > 100 µM
- GI50 (NCI-H522 lung): > 68.6 µM
- TGI (NCI-H522 lung): > 100 µM
- GI50 (OVCAR-3 ovarian): 52.8 µM
- TGI (OVCAR-3 ovarian): > 100 µM
- GI50 (OVCAR-4 ovarian): > 100 µM
- TGI (OVCAR-4 ovarian): > 100 µM
- GI50 (OVCAR-5 ovarian): > 100 µM
- TGI (OVCAR-5 ovarian): > 100 µM
- GI50 (OVCAR-8 ovarian): > 100 µM
- TGI (OVCAR-8 ovarian): > 100 µM
- GI50 (PC-3 prostate): 76.1 µM
- TGI (PC-3 prostate): > 100 µM
- GI50 (RXF 393 renal): 43.5 µM
- TGI (RXF 393 renal): > 100 µM
- GI50 (SF-268 CNS): > 100 µM
- TGI (SF-268 CNS): > 100 µM
- GI50 (SF-539 CNS): > 100 µM
- TGI (SF-539 CNS): > 100 µM
- GI50 (SK-MEL-2 melanoma): > 100 µM
- TGI (SK-MEL-2 melanoma): > 100 µM
- GI50 (SK-MEL-28 melanoma): > 80.5 µM
- TGI (SK-MEL-28 melanoma): > 100 µM
- GI50 (SK-MEL-5 melanoma): 16.4 µM
- TGI (SK-MEL-5 melanoma): > 100 µM
- GI50 (SN12C renal): > 82 µM
- TGI (SN12C renal): > 100 µM
- GI50 (SNB-19 CNS): > 100 µM
- TGI (SNB-19 CNS): > 100 µM
- GI50 (SR leukemia): 24.8 µM
- TGI (SR leukemia): > 75.9 µM
- GI50 (SW-620 colon): > 91.7 µM
- TGI (SW-620 colon): > 100 µM
- GI50 (T-47D breast): 32.6 µM
- TGI (T-47D breast): > 100 µM
- GI50 (TK-10 renal): 67.2 µM
- TGI (TK-10 renal): > 100 µM
- GI50 (U251 glioblastoma): > 100 µM
- TGI (U251 glioblastoma): > 100 µM
